According to US10481149B2:
Where two headings read alike, the source gives them in different places.

Experiments:
BSEP [1] = target: T1, BSEP (Rattus norvegicus, UniProt O70127); experiment: Inhibition of BSEP activity (transport of glycocholate) in rat hepatocytes
T1 sequence (O70127 1-1321): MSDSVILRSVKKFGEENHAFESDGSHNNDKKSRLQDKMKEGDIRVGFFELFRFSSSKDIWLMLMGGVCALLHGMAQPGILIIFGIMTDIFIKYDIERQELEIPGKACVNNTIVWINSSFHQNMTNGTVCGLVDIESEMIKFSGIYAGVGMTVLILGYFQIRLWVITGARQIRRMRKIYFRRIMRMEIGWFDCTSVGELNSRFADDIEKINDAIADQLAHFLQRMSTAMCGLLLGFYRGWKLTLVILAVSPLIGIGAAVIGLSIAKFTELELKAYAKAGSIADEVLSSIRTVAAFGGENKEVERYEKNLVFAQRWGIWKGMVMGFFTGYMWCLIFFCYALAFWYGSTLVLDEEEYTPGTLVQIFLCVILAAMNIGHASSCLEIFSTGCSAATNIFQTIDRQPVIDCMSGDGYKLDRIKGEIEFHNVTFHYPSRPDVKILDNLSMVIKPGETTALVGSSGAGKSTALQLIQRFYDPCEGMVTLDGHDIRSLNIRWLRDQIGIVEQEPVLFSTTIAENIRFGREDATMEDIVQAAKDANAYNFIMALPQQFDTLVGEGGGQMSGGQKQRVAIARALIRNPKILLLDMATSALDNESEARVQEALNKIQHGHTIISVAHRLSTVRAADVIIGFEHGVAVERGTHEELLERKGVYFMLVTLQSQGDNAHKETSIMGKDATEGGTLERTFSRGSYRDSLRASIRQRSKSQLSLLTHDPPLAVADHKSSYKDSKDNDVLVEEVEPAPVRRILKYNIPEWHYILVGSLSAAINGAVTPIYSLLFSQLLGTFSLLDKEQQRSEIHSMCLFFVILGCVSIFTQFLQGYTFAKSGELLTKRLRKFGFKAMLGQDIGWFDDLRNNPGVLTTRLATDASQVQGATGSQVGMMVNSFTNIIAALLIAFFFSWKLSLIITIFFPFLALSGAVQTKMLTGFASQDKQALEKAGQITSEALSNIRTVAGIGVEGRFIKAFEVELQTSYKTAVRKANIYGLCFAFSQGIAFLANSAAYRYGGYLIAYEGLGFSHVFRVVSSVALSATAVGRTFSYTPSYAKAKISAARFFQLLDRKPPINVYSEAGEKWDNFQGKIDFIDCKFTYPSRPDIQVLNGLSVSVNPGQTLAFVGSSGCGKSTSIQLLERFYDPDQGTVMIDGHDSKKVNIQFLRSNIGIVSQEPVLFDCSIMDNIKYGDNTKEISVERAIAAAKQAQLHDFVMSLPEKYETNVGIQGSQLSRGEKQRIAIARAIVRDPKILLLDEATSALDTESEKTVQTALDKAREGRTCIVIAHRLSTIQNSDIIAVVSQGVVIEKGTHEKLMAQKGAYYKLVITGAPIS

BSEP [2] = target: T2, BSEP (Mus musculus, UniProt Q9QY30); experiment: Inhibition of BSEP activity (transport of taurocholate) in mouse hepatocytes
T2 sequence (Q9QY30 1-1321): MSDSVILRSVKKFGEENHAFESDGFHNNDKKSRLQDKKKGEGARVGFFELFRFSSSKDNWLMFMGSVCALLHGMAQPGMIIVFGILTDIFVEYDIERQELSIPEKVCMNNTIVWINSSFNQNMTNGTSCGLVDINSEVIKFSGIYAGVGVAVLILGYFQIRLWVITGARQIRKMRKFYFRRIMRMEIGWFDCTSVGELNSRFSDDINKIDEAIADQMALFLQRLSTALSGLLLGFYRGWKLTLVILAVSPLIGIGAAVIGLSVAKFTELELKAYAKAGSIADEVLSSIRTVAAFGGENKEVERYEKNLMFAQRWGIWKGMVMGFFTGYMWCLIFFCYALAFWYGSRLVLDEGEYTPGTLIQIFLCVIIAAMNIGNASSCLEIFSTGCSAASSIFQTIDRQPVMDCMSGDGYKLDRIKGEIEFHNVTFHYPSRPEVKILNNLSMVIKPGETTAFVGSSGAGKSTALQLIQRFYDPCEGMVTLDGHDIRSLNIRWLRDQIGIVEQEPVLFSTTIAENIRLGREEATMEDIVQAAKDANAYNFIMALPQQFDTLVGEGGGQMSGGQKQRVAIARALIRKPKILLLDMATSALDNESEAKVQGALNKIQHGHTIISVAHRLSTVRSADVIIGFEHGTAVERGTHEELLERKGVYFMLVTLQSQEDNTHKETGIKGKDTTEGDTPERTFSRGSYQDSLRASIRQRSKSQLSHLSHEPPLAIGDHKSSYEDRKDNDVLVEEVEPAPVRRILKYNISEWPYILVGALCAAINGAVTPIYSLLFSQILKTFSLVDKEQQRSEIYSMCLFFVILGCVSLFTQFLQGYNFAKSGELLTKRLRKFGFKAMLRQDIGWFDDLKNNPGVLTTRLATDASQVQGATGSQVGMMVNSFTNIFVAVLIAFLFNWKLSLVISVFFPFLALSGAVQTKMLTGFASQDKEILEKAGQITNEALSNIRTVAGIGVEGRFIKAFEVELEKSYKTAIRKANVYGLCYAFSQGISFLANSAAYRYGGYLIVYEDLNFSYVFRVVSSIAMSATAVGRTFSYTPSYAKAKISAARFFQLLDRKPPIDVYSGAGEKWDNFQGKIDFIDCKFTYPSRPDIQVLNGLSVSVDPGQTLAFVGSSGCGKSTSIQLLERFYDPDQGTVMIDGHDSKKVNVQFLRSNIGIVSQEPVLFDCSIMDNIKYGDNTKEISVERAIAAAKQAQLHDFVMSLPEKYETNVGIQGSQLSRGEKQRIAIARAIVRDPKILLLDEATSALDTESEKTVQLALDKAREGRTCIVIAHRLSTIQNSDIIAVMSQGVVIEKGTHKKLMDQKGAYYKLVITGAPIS

BSEP [3] = target: BSEP (Homo sapiens, UniProt O95342); experiment: in vitro
[4] = hepatocytes in suspension, probe glycocholate
[5] = hepatocytes in suspension, probe taurocholate

Chain of BSEP (Homo sapiens, UniProt O95342) (O95342 whole entry): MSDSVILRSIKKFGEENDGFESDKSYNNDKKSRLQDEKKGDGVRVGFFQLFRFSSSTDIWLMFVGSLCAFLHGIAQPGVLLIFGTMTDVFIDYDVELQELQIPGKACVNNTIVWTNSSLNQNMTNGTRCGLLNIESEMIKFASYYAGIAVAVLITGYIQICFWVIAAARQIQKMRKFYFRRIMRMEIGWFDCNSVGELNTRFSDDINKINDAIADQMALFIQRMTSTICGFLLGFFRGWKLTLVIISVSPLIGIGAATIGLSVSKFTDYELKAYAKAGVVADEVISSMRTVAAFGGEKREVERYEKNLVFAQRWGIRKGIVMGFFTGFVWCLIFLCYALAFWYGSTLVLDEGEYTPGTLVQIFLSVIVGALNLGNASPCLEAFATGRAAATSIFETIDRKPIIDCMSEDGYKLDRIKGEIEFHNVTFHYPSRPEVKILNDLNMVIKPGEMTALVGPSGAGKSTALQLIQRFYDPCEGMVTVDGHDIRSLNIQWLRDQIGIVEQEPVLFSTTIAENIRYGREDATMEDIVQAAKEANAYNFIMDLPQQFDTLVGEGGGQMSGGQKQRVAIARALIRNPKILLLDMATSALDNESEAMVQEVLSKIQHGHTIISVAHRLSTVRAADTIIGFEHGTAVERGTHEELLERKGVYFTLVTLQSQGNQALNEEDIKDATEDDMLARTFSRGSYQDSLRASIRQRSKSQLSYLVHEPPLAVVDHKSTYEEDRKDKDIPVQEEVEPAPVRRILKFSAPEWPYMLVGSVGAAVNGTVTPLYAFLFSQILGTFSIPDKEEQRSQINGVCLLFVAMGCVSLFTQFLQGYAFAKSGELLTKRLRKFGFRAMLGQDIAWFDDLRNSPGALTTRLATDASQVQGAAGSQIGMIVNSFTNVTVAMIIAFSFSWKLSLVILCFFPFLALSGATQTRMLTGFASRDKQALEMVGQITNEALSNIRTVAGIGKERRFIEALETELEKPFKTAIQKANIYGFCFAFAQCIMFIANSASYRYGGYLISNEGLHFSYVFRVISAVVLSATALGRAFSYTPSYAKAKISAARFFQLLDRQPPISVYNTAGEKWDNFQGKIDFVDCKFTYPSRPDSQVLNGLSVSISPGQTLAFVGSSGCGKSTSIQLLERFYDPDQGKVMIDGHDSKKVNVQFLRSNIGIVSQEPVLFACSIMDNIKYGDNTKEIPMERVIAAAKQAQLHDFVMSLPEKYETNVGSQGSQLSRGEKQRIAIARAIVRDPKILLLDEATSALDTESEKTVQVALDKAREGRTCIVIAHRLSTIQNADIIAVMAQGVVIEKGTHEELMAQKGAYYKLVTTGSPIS

SMILES	inhibition at 1 h, 1 μM (BSEP [1]; [4])	inhibition at 1 h, 10 μM (BSEP [1]; [4])	inhibition at 1 h, 1 μM (BSEP [2]; [5])	inhibition at 1 h, 10 μM (BSEP [2]; [5])	inhibition at 1 h, 1 μM (BSEP [3]; [4])	inhibition at 1 h, 10 μM (BSEP [3]; [4])	inhibition at 1 h, 1 μM (BSEP [1])	inhibition at 1 h, 10 μM (BSEP [1])	inhibition at 1 h, 1 μM (BSEP [2])	inhibition at 1 h, 10 μM (BSEP [2])	inhibition at 1 h, 1 μM (BSEP [3])	inhibition at 1 h, 10 μM (BSEP [3])
COC(=O)N[C@H](C(=O)N[C@@H](Cc1ccccc1)[C@@H](O)CN(Cc1ccc(-c2ccccn2)cc1)NC(=O)[C@@H](NC(=O)OC)C(C)(C)C)C(C)(C)C [Atazanavir, atazanavir]	> 50%	> 50%	< 50%	< 50%	< 50%	> 50%	–	–	–	–	–	–
C[C@@H](Oc1cc(-c2cnn(C3CCNCC3)c2)cnc1N)c1c(Cl)ccc(F)c1Cl [Crizotinib, crizotinib]	< 50%	> 50%	< 50%	< 50%	< 50%	> 50%	–	–	–	–	–	–
OC(Cn1cncn1)(Cn1cncn1)c1ccc(F)cc1F [Fluconazole, fluconazole]	< 50%	< 50%	< 50%	< 50%	< 50%	< 50%	–	–	–	–	–	–
CC(=O)N1CCN(c2ccc(OCC3COC(Cn4ccnc4)(c4ccc(Cl)cc4Cl)O3)cc2)CC1 (stereo not drawn) [Ketoconazole, ketoconazole]	< 50%	> 50%	< 50%	< 50%	< 50%	< 50%	–	–	–	–	–	–
Cc1c(O)cccc1C(=O)N[C@@H](CSc1ccccc1)[C@H](O)CN1C[C@H]2CCCC[C@H]2C[C@H]1C(=O)NC(C)(C)C [Nelfinavir, nelfinavir]	< 50%	> 50%	< 50%	< 50%	< 50%	> 50%	–	–	–	–	–	–
CC(C)NCC(O)COc1cccc2ccccc12 (stereo not drawn) [Propranolol, propranolol]	< 50%	< 50%	< 50%	< 50%	< 50%	< 50%	–	–	–	–	–	–
O=c1c(O)c(-c2ccc(O)c(O)c2)oc2cc(O)cc(O)c12 [Quercetin, quercetin]	< 50%	< 50%	< 50%	< 50%	< 50%	< 50%	–	–	–	–	–	–
C=C[C@H]1C[N@@]2CC[C@H]1C[C@@H]2[C@@H](O)c1ccnc2ccc(OC)cc12 [Quinidine, quinidine]	< 50%	< 50%	< 50%	< 50%	< 50%	< 50%	–	–	–	–	–	–
S=P(N1CC1)(N1CC1)N1CC1 [Thiotepa, thiotepa]	–	–	–	–	–	–	< 50%	< 50%	< 50%	< 50%	< 50%	< 50%
Cc1c(C)c2c(c(C)c1O)CCC(C)(COc1ccc(CC3SC(=O)NC3=O)cc1)O2 (stereo not drawn) [Troglitazone, troglitazone]	> 50%	> 50%	< 50%	< 50%	> 50%	> 50%	–	–	–	–	–	–
CC[C@]1(O)C[C@@H]2CN(CCc3c([nH]c4ccccc34)[C@@](C(=O)OC)(c3cc4c(cc3OC)N(C)[C@H]3[C@@](O)(C(=O)OC)[C@H](OC(C)=O)[C@]5(CC)C=CCN6CC[C@]43[C@@H]65)C2)C1 [Vinblastine, vinblastine]	< 50%	> 50%	< 50%	< 50%	< 50%	> 50%	–	–	–	–	–	–
